Experimental data as given in ChEMBL document CHEMBL1201862, “PubChem BioAssay data set” (2004).
Active and inactive are the calls of the source.

Legend:
Cannabinoid receptor 1 [1] = biological target: T1, Cannabinoid receptor 1 (Homo sapiens, UniProt P21554); assay: SAR analysis of agonists of the Cannabinoid Receptor 1 using an Image-Based Assay - Set 4. [Related pubchem assays (depositor defined):AID2013, AID2026]; format: functional
Cannabinoid receptor 1 [2] = biological target: T1, Cannabinoid receptor 1; assay: SAR analysis of antagonists of the Cannabinoid Receptor 1 using an Image-Based Assay - Set 4. [Related pubchem assays (depositor defined):AID2013, AID2026]; format: functional
[3] = biological target: T2, G-protein coupled receptor 35 (Homo sapiens, UniProt Q9HC97); assay: SAR analysis of Agonists of the GPR35 Receptor using an Image-Based Assay - Set 4. [Related pubchem assays (depositor defined):AID2013, AID2026]; format: functional
[4] = biological target: T2, G-protein coupled receptor 35; assay: SAR analysis of Antagonists of the GPR35 Receptor using an Image-Based Assay - Set 6. [Related pubchem assays (depositor defined):AID2013, AID2026]; format: functional
[5] = biological target: G-protein coupled receptor 55 (Homo sapiens, UniProt Q9Y2T6); assay: SAR Analysis of Selective Antagonists of GPR55 using an Image-Based Assay - Set 4. [Related pubchem assays (depositor defined):AID2013, AID2026]; format: functional;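 further: antagonism of response to 5 µM lysophosphatidylinositol agonist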
Cannabinoid receptor 2 [6] = biological target: T3, Cannabinoid receptor 2 (Homo sapiens, UniProt P34972); assay: SAR analysis of antagonists of the Cannabinoid Receptor 2 using an Image-Based Assay - Set 3. [Related pubchem assays (depositor defined):AID2013, AID2026]; format: functional
Cannabinoid receptor 2 [7] = biological target: T3, Cannabinoid receptor 2; assay: SAR analysis of agonists of the Cannabinoid Receptor 2 using an Image-Based Assay - Set 3. [Related pubchem assays (depositor defined):AID2013, AID2026]; format: functional
[8] = biological target: T4, E3 ubiquitin-protein ligase XIAP (Homo sapiens, UniProt P98170); assay: SAR analysis of Antagonists of XIAP-Bir3 domain of IAP-family anti-apoptotic proteins. [Related pubchem assays (depositor defined):AID1018, AID1449, AID1513, AID1514, AID1638]
[9] = biological target: T4, E3 ubiquitin-protein ligase XIAP; assay: SAR analysis of Antagonists of IAP-family anti-apoptotic proteins. [Related pubchem assays (depositor defined):AID1018, AID1449, AID1513, AID1514, AID1638]
[10] = biological target: Sphingosine 1-phosphate receptor 1 (Homo sapiens, UniProt P21453); assay: Fluorescence-based counterscreen assay for S1P4 agonists: Cell-based dose response high throughput screening assay to identify agonists of the Sphingosine 1-Phosphate Receptor 1 (S1P1). [Related pubchem assays (depositor defined):AID1509, AID1523, AID1801, AID463107, AID463118, AID463119, AID463122, AID463123, AID463129, AID463225, AID504400, AID504460]; format: functional
[11] = biological target: T5, Sphingosine 1-phosphate receptor 4 (Homo sapiens, UniProt O95977); assay: Fluorescence dose response cell-based high throughput screening assay for agonists of the Sphingosine 1-Phosphate Receptor 4 (S1P4). [Related pubchem assays: 1509 (Primary screen.), 1523 (Confirmation screen in triplicates.)]; format: functional
T5 sequence (O95977 whole entry): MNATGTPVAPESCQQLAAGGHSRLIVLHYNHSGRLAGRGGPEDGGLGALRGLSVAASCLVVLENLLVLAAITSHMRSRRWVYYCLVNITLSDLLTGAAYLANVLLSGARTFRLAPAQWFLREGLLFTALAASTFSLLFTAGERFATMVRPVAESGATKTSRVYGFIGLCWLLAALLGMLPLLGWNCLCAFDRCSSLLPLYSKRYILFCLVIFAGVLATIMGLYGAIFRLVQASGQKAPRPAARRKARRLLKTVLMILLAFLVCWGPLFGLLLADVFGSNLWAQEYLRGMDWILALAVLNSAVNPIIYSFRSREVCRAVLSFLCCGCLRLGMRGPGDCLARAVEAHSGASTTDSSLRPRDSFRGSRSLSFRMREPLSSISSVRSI

[12] = biological target: Kappa-type opioid receptor (Homo sapiens, UniProt P41145); assay: SAR analysis of small molecule agonists of the kappa opioid receptor via a luminescent beta-arrestin assay - Set 3. [Related pubchem assays (depositor defined):AID1777, AID1785, AID1786, AID1966, AID2133, AID2136, AID2284, AID2500]; format: functional
Streptococcus = assay: GAS UMAA2166 growth inhibition – luminescence, BacTiterGlo, counter-screen for streptokinase expression inhibitor project, dose response (AID 1915); format: functional, organism-based;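 further: potency for reduction of bacterial viability or growth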
[13] = Luminescence Cell-Based Dose Confirmation HTS to Identify Inhibitors of 5'UTR Stem-Loop Driven Alpha-Synuclein mRNA Translation in H4 Neuroglioblastoma Cells. [Related pubchem assays: 1827 (Project Summary), 1813 (Primary HTS)]; format: functional
[14] = Luminescence Cell-Based Dose Response HTS to Identify Activators of 5'UTR Stem-Loop Driven Prion Protein mRNA Translation in H4-C Neuroglioblastoma Cells. [Related pubchem assays: 1829 (Project Summary), 1814 (Primary HTS)]; format: functional
[15] = Luminescence Cell-Based Dose Response HTS to Identify Inhibitors of Luciferase Translation or Activity in H4-C Neuroglioblastoma Cells. [Related pubchem assays: 1813 (Primary HTS), 1827 (Project Summary)]; format: functional
[16] = Luminescence Cell-Based Dose Response HTS to Identify Activators of Luciferase Translation or Activity in H4-C Neuroglioblastoma Cells. [Related pubchem assays: 1829 (Project Summary), 1814 (Primary HTS)]; format: functional
[17] = alpha-synuclein stem-loop translation blockers – luminescence, H4 neuroglioblastoma cells, dose confirmation, confirmation (AID 2454); format: functional, cell-based;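 further: H4 neuroglioblastoma cells carrying an alpha-synuclein 5'UTR luciferase reporter; potency for inhibition of the luciferase signal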
[18] = luciferase reporter signal reduction – luminescence, H4-C neuroglioblastoma cells, dose response (AID 2458); format: functional, cell-based;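 further: H4 neuroglioblastoma cells stably carrying a luciferase reporter gene fusion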
[19] = biological target: T6, Serine/threonine-protein phosphatase (Candida dubliniensis (strain CD36 / CBS 7987 / NCPF 3949 / NRRLY-17841) (Yeast), UniProt B9W6M3); assay: blockers of CaCl2-induced CDRE-lacZ signaling – S. cerevisiae, luminescence, secondary, dose response (AID 2388); format: functional, cell-based;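 further: yeast reporter cells carrying a calcineurin-responsive lacZ construct stimulated with calcium chloride; luminescent beta-galactosidase reporter signal in whole cells rather than isolated phosphatase activity; potency for inhibition where a drop in reporter signal means calcineurin blockade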
T6 sequence (B9W6M3 whole entry): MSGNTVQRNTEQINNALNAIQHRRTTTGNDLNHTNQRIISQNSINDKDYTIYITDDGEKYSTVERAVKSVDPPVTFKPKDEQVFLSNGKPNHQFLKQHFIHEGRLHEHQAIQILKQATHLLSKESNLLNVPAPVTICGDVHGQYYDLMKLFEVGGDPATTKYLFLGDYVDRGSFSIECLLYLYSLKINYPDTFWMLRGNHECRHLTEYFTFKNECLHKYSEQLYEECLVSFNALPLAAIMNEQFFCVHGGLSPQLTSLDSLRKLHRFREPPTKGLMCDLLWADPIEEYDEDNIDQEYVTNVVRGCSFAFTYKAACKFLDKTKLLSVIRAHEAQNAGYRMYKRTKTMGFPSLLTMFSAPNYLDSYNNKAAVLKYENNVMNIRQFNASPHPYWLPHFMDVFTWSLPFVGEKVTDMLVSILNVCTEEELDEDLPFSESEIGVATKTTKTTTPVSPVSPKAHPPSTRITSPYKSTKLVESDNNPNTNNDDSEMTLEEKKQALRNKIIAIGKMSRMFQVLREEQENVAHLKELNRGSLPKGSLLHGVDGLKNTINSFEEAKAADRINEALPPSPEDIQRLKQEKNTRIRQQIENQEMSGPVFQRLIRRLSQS

[20] = alpha-synuclein stem-loop luciferase translation blockers – H4 neuroglioma cells, luminescence, confirmation (AID 1988); format: functional, cell-based
[21] = Trypanosoma cruzi growth suppression in host cells – NIH3T3 host cells, beta-gal luminescence, confirmation (AID 2044); format: functional, cell-based;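 further: intracellular parasites grown in NIH/3T3 mouse fibroblasts as host cells; luminescent beta-galactosidase reporter signal from transgenic T. cruzi replicating inside host cells; inhibitors lower the luminescence signal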
[22] = tested on: Streptococcus sp. 'group A'; assay: Streptococcus pyogenes SK(-)GAS viability under kanamycin – luminescence, BacTiterGlo, confirmation, counter-screen for streptokinase expression inhibitor project, dose response (AID 1900); format: functional, organism-based
Beta-galactosidase = Beta-galactosidase (Escherichia coli, UniProt Q8VNN2); assay: PubChem AID 485352; format: functional
[23] = biological target: T7, Type-1 angiotensin II receptor (Homo sapiens, UniProt P30556); assay: antagonism of angiotensin II type 1 receptor – cell-based, uHTS hits, selectivity assay for APJ receptor antagonist project, dose response (AID 463214); format: functional;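 further: antagonist potency against angiotensin II stimulated AT1 response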
T7 sequence (P30556 whole entry): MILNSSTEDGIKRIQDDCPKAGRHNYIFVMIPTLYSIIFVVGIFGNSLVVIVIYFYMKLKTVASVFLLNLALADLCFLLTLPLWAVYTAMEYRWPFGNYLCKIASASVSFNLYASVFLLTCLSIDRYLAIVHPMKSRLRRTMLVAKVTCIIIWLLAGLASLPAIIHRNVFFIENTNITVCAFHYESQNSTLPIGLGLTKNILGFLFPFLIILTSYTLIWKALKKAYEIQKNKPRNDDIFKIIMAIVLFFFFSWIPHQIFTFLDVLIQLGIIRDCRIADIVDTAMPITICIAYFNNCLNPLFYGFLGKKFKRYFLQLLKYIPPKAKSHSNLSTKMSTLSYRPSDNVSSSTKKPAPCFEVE

[24] = Luminescence Cell-Based Dose HTS Response to Identify Inhibitors of 5'UTR Stem-Loop Driven Prion Protein mRNA Translation in H4-C Neuroglioblastoma Cells. [Related pubchem assays (depositor defined):AID1814, AID1827]; format: functional
[25] = Luminescence Cell-Based Dose Response HTS to Identify Inhibitors of 5'UTR Stem-Loop Driven Prion Protein mRNA Translation in H4 Neuroglioblastoma Cells. [Related pubchem assays: 1827 (Project Summary), 1813 (Primary HTS)]; format: functional
cells = format: functional, cell-based
[26] = NIH3T3 cell viability loss – ATP luminescence, mouse fibroblasts, counter-screen, dose response (AID 2010); format: functional, cell-based;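 further: cells exposed to compound for about 90 hours before reading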
[27] = HEK-293T viability loss after treatment – luminescence, T-cell screen hits, cytotoxicity control for TCR NF-kB inhibitor project, dose response (AID 489026); format: functional, cell-based;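 further: cells exposed to compound about 14 hours before the viability readout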
[28] = Luminescence Cell-Based Dose Retest to Confirm Activators of 5'UTR Stem-Loop Driven Alpha-Synuclein mRNA Translation in H4 Neuroglioblastoma Cells. [Related pubchem assays (depositor defined):AID1813, AID1829]; format: functional
[29] = luciferase reporter signal suppression in cells – H4 neuroglioma cells, luminescence, dose response (AID 1990); format: functional, cell-based
Nonstructural protein 1 = Nonstructural protein 1 (Influenza A virus, UniProt Q194T2); format: functional, Influenza A virus (A/California/07/2009(H1N1))
[30] = NIH-3T3 fibroblast cytotoxicity, dose response, cytotoxicity control, cell-based, fluorescence, Alamar Blue, secondary assay (AID 2327); format: functional;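 further: NIH-3T3 mouse fibroblasts cultured with fluconazole at 8 µg/mL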
[31] = biological target: ATP-dependent molecular chaperone HSP82 (Candida albicans (strain WO-1) (Yeast), UniProt C4YTQ8); assay: steroid-induced GRE reporter decrease in yeast – S. cerevisiae, luminescence, Hsp90 inhibitor project, dose response (AID 2400); format: functional, cell-based;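 further: beta-galactosidase luminescence from glucocorticoid response element reporter as proxy for Hsp90 function; inhibitor potency where signal loss means Hsp90 inhibition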
[32] = biological target: Induced myeloid leukemia cell differentiation protein Mcl-1 (Homo sapiens, UniProt Q07820); format: functional
[33] = fluconazole-exposed Candida albicans growth modulators – fluorescence, retest, confirmation (AID 2467); format: functional, cell-based

T3 sequence (P34972 whole entry): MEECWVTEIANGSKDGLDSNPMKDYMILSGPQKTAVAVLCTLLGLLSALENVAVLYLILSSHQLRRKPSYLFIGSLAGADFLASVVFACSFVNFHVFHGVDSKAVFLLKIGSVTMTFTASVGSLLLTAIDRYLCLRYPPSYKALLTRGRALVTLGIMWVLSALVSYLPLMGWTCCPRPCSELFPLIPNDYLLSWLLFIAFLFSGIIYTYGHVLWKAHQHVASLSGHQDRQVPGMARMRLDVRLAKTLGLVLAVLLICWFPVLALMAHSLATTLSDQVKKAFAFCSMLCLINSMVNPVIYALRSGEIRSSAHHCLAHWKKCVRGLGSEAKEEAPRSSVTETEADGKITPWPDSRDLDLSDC
T2 sequence (Q9HC97 whole entry): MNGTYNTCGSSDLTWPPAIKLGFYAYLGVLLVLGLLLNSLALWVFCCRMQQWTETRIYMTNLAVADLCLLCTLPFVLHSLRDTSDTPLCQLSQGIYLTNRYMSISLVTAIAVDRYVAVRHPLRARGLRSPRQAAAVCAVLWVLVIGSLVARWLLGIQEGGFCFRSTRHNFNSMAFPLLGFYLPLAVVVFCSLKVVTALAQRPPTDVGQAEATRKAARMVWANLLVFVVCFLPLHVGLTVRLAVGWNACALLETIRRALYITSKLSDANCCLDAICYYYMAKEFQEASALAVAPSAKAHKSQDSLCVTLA
T1 sequence (P21554 whole entry): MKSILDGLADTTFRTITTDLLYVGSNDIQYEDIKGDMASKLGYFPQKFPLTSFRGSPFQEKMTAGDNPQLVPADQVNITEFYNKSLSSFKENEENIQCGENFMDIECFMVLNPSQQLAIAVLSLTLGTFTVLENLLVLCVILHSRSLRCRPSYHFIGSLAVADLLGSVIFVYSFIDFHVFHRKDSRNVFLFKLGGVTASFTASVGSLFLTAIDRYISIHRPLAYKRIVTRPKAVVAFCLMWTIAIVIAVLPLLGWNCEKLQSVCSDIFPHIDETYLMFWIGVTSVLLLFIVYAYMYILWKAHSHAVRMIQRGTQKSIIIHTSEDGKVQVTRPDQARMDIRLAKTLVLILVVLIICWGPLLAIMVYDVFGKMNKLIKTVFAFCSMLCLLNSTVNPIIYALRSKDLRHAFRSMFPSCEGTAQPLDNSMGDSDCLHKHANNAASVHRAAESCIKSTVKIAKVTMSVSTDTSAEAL
T4 sequence (P98170 whole entry, the tested form may be a part): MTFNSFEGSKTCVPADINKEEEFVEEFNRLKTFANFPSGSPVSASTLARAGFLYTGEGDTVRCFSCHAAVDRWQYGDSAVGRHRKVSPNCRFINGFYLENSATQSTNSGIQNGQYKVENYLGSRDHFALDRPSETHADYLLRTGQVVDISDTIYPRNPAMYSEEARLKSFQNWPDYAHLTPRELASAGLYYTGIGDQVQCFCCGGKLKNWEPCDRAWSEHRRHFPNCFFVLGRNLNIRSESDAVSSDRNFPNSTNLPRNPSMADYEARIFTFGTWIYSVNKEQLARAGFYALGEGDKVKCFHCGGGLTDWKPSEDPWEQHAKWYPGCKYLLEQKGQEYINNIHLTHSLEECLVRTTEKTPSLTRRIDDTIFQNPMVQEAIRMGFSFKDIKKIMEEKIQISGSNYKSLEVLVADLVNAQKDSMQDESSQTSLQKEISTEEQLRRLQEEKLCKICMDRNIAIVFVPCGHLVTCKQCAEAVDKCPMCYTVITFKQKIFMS
Sequence of ATP-dependent molecular chaperone HSP82 (C4YTQ8 whole entry): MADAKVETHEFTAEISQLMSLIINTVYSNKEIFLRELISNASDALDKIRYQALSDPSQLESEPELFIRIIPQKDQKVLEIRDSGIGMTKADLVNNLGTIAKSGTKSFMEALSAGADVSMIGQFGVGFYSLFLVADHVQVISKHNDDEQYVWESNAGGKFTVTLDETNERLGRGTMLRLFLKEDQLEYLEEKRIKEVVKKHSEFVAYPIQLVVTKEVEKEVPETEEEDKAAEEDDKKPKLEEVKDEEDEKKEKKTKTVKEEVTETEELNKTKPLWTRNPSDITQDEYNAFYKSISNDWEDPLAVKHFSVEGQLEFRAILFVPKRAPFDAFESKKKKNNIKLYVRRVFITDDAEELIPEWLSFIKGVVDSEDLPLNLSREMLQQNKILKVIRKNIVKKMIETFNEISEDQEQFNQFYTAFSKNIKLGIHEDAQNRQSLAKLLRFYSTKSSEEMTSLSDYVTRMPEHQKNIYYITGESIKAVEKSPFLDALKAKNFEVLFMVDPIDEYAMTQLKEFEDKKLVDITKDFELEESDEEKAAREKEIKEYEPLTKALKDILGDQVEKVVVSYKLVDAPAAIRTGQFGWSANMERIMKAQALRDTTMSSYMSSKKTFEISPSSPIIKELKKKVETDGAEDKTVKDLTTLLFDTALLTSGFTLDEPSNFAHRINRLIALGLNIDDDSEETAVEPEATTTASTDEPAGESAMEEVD
Sequence of Induced myeloid leukemia cell differentiation protein Mcl-1 (Q07820 whole entry): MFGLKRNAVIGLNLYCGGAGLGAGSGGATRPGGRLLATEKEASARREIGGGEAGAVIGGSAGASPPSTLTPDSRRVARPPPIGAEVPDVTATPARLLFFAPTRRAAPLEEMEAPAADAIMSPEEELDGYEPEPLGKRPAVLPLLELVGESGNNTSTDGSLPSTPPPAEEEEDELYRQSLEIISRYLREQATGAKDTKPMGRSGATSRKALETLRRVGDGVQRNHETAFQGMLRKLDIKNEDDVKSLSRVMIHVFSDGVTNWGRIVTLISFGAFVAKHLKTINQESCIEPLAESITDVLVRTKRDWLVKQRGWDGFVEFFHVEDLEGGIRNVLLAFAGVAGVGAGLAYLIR
Sequence of Sphingosine 1-phosphate receptor 1 (P21453 whole entry): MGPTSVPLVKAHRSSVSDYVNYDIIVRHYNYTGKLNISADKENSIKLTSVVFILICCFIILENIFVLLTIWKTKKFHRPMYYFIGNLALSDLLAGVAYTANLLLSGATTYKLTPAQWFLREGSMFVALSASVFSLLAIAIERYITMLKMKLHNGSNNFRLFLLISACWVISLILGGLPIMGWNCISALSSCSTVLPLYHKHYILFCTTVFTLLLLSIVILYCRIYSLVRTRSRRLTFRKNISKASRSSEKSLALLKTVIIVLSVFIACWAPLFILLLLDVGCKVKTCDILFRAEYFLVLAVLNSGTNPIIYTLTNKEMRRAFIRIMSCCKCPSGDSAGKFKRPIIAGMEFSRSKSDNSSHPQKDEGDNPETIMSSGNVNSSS
Sequence of G-protein coupled receptor 55 (Q9Y2T6 whole entry): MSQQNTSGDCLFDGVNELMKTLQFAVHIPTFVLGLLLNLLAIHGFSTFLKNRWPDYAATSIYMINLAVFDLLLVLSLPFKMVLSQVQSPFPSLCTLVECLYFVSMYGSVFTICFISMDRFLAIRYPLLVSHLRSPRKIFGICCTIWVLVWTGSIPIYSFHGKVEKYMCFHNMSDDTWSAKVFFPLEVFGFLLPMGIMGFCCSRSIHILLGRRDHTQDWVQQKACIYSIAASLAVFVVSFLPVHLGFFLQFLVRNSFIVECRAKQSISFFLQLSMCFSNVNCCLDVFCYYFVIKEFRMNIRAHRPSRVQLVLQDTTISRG
Sequence of Kappa-type opioid receptor (P41145 whole entry): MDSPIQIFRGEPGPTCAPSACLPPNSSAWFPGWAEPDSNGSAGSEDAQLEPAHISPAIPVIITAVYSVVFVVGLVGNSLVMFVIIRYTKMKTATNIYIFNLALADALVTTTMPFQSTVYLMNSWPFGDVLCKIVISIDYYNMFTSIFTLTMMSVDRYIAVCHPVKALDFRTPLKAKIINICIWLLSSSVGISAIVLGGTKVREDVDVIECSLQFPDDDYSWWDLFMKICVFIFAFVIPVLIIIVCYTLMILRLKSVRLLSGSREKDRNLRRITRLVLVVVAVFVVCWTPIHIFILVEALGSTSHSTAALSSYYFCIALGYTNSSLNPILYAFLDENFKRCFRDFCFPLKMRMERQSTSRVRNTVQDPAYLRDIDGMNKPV
Sequence of Nonstructural protein 1 (Q194T2 whole entry): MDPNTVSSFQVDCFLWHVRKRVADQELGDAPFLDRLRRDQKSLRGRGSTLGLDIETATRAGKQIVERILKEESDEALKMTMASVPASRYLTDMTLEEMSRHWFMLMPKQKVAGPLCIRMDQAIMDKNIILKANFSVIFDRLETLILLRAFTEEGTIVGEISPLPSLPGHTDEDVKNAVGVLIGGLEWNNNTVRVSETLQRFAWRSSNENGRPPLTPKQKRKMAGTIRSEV

COCCCNC(=O)c1cc2c(=O)n3ccccc3nc2n(C2CCCC2)c1=N
EC50 (Cannabinoid receptor 1 [1]): > 32 µM (inactive) | IC50 (Cannabinoid receptor 1 [2]): > 32 µM (inactive) | EC50 [3]: > 32 µM (inactive) | IC50 [4]: > 32 µM (inactive) | IC50 [5]: > 32 µM (inactive) | IC50 (Cannabinoid receptor 2 [6]): > 32 µM (inactive) | EC50 (Cannabinoid receptor 2 [7]): 2.33 µM (active)

CN[C@@H](C)C(=O)N[C@H](C(=O)N[C@H](C(=O)Nc1cccc2ccccc12)C(C)C)C(C)C
IC50 [8]: > 100 µM (inactive) | IC50 [9]: 3.9 µM (active)

Cc1cc(C)nc(N/N=C/c2ccc(N3CCOCC3)cc2)n1
EC50 [10]: > 49.8 µM (inactive) | EC50 [11]: > 49.8 µM (not active)

Cc1ccc2[nH]c(=O)c(CN(CCC(C)C)C(=O)c3ccccn3)cc2c1
EC50 [12]: 13.1 µM (inactive)

O=[N+]([O-])c1ccc(O)c(/C=N/Nc2ccc(Cl)nn2)c1
EC50 (Streptococcus): 0.944 µM (active) | EC50 [13]: 0.825 µM (active) | EC50 [14]: 0.375 µM (inconclusive) | EC50 [15]: 0.925 µM (active) | EC50 [16]: 1.05 µM (inconclusive) | EC50 [17]: 0.65 µM (active) | EC50 [18]: 0.717 µM (active) | EC50 [19]: > 180 µM (inactive) | EC50 [20]: < 0.1 µM (active) | EC50 [21]: 0.633 µM (active) | EC50 [22]: 0.305 µM (active) | EC50 (Beta-galactosidase): > 40 µM (inactive) | IC50 [23]: 3.63 µM (active) | EC50 [24]: 0.904 µM (active) | EC50 [25]: > 120 µM (not active) | EC50 (cells): 0.779 µM (active) | EC50 [26]: < 6 µM (inconclusive) | IC50 [27]: > 80 µM (inactive) | EC50 [28]: 0.673 µM (inconclusive) | EC50 [29]: 9.52 µM (active) | IC50 (Nonstructural protein 1): 1.32 µM (active) | EC50 [30]: 14.6 µM (inconclusive) | EC50 [31]: > 150 µM (inactive) | IC50 [32]: 14.1 µM (active) | EC50 [33]: 0.179 µM (active)
